Test results taken from article PMC7689490, “Designed CXCR4 mimic acts as a soluble chemokine receptor that blocks atherogenic inflammation by agonist-specific targeting” (Nature Communications, 2020).
Values joined by “and” are separate entries in the source; they are usually repeats but may differ in a detail not shown here. Equal values may be shown once.

Tests used:
[1] = system: human CXCR4; assay: CXCL12-triggered CXCR4-specific signaling in yeast (lacZ read-out); assay type: cell-based
Description: Briefly, yeast transformants stably expressing human CXCR4 were grown overnight at 30 °C in yeast nitrogen base selective medium (Formedium, UK). Cells were diluted to an OD600 of 0.2 and grown to an OD600 of 0.3–0.6. […] OD600 was measured and activation of CXCR4 signaling quantified by β-galactosidase activity using a commercial BetaGlo Kit (Promega, Mannheim, Germany).

[2] = system: primary mouse spleen B lymphocytes; assay: MIF-triggered Transwell chemotaxis of primary splenic B cells;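 as to all read-outs here: migration tracked over 4 h at 37 °C, read out as transmigrated cells counted by flow cytometry with absolute counting beads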; assay type: cell-based; settings: for MIF-elicited chemotaxis: Suppl. Fig. 15b, individual replicates, n = 4
Description: Briefly, splenic B cells were isolated by negative depletion using a Pan B Cell Isolation Kit (Miltenyi Biotec, Bergisch Gladbach, Germany). […] Chemotaxis was followed for 4 h at 37 °C in a humidified atmosphere of 5% CO2. Migrated cells were counted by flow cytometry using CountBright™ Absolute Counting Beads (Molecular Probes-Invitrogen).

[3] = system: pAMPK/AMPK in HCM; assay: MIF/CD74-triggered AMPK signaling in human cardiomyocytes (HCM); assay type: cell-based
Description: HCMs (2 × 10^5 per well) were plated in 12-well plates and maintained for 2 days with cultured medium containing 5% FCS. Before stimulation, medium was replaced by fresh myocyte basal medium containing 0.05% FCS and HCMs rested for 16 h. Surface CD74 expression on HCMs was verified by flow cytometry (FITC-conjugated anti-human CD74 (1:100 dilution), FITC-IgG2 (isotype control) (BD Pharmingen), 1 h/4 °C in the dark, BD FACSVerse™ flow cytometer, FlowJo software). […] After treatment, cells were lysed and subjected to SDS-PAGE (10%)/Western blotting using NuPAGE® lithium dodecyl sulfate (LDS)/dithiothreitol (DTT) lysis buffer-containing PhosSTOP^TM reagent (Roche Applied Science). […] Anti-rabbit horse-radish peroxidase (HRP)-conjugated antibody (1:10000, GE Healthcare, Freiburg, Germany) was used for development and signals quantitated by chemiluminescence using an Odyssey® Fc imager. Unprocessed scans of the Western blots are supplied in the Source Data file.

[4] = system: MonoMac-6 / HAoEC; assay: MIF-induced static adhesion of MonoMac-6 monocytes to HAoECs; assay type: cell-based, human
Description: HAoECs were seeded at a density of 30,000 cells/well in 6 well µ-Ibidi Perfusion slides VI 0.4 (Ibidi GmbH). […] After perfusion of the chambers with fresh medium, MonoMac6 cells (1 × 10^6 cells mL^−1) in PromoCell medium were added for 30 min. Non-adhering cells were flushed away by gentle perfusion using a 30 mL syringe. To quantify adherent monocytes, seven individual images (technical triplicates each) from each treatment were acquired using a Leica DMi8 inverted microscope with a ×10 objective and cells quantified using ImageJ.

[5] = system: MonoMac-6 / HAoEC; assay: MIF-induced MonoMac-6 adhesion to HAoECs under flow; assay type: cell-based, human
Description: HAoECs were seeded at a density of 60,000 cells per channel in collagen-coated Ibidi µ-Slides I 0.8 and incubated for 20–24 h until monolayers were confluent. […] Prior to the flow assay, MgSO4 and CaCl2 were added to MonoMac6 suspensions at a final concentration of 1 mM. Flow channels containing HAoEC monolayers were then perfused with MonoMac6 cells at a shear rate of 1.5 dyn cm^−2 for 10 min at 37 °C using the Ibidi Pump System/Perfusion Set. For quantification of adherent monocytes, images from four positions per channel were acquired using a Leica DMi8 inverted microscope (20 x objective) and quantified with ImageJ.

[6] = system: Apoe−/− mice on HFD; assay: In vivo model of atherosclerosis (lesions, lesional macrophages, tolerability)
Description: Seven-eight-week-old female Apoe^−/− mice were randomly divided into two groups of 11–12 mice each and both groups put on a Western-type HFD (0.21% cholesterol) for 4.5 weeks. Mice develop early-to-intermediate atherosclerotic lesions in this model. […] At the end of the experiment, mice were sacrificed, blood collected by cardiac puncture and saved for blood cell and lipid measurements and mice transcardially perfused with saline. Hearts, proximal aortas and carotid arteries were prepared and fixed for plaque morphometry and lesion analysis.
Quantification of plaques and vessel morphometry (ORO and H&E staining). Cut heart tissues containing aortic root were embedded in Tissue Tek optimum cutting temperature (OCT) substance (Sakura Finetek, Osaka, Japan) and frozen at −80 °C. Eight-µm sections were prepared for ORO staining and plaque immune cell analysis. The accumulation of macrophages in aortic root lesions was determined by an anti-MAC-2 antibody (1:100 dilution) followed by Cy5-conjugated secondary antibody. Nuclei were visualized with DAPI. The aortic arch was cut, fixed in 4% paraformaldehyde (PFA) and embedded in paraffin. Four-µm sections containing the three branches (brachiocephalic, left common carotid, and left subclavian artery) were prepared and stained with hematoxylin/eosin (H&E) for vessel morphometry. Images were captured with a Leica DMi8 microscope and quantified using ImageJ.

[7] = system: circulating inflammatory cytokines; assay: Plasma cytokine array in treated Apoe−/− mice; assay type: in vivo, mouse; settings: reductions for IL-1α, IL-16, TNF-α, CXCL13/BLC; 6 vs 6 mice
Description: Plasma samples were diluted (1:10) in array buffer; incubated with antibody detection cocktail for 1 h at RT, exposed to the blocked membranes (overnight, 4 °C), membranes washed and incubated with streptavidin-HRP conjugate working solution (30 min, RT). Membranes were developed with Chemi-Reagent Mix and analyzed by Odyssey® Fc imager. The average signal (mean signal intensity) of duplicate spots was quantified by ImageJ.

[8] = system: human monocyte-derived macrophages; assay: LDLR and CXCR4 cell surface levels in macrophages (flow cytometry, Reviewer-only Figure 4); assay type: cell-based
Description: crosstalk, or might even imply that CXCR4 and LDLR colocalize/complex and are subjected to a joint internalization event.
We feel that these studies warrant further in-depth (and mechanistic) exploration, which are […]
in the manuscript. We have therefore prepared them as Reviewer-only Figure 4 below.
Supplementary part of the manuscript, we are happy to do so. […]
expression and endocytosis in human monocyte-derived macrophages. LDLR and CXCR4 cell surface levels were measured by flow cytometry. Experiments were performed in the presence of LDL and the […]
containing 100µg/mL penicillin, 100 µg/mL streptomycin, and 0.2% BSA) for 15 min at 37°C and subsequently exposed to LDL (25 µg/mL) for 15 min. After washing with PBS, cells were collected and incubated with anti-hLDLR-APC (1:100, R&D Systems, FAB2148A) and anti-CXCR4-PE (1:100, R&D Systems, FAB170P) at 4°C for 1 h. MIF stimulation enhances LDL-triggered internalization of LDLR and […]
The data shown are from one of two experiments
MIF dependent adhesion can be blocked, it is unclear whether MIF dependent adhesion to TNF-activated (since this stimulus seems relevant in in vivo settings) endothelial cells can be […]
Response: Thank you for this important point. […]
experiment and now include static adhesion data using TNF-primed endothelial cells in the […]

[9] = mouse, in vivo
[10] = MIF + msR4M-L1, individual replicates, n = 4

CC[C@H](C)[C@H](NC(=O)[C@H](Cc1ccc(O)cc1)NC(=O)[C@H](CCCNC(=N)N)NC(=O)[C@H](CC(=O)O)NC(=O)CCCCCCCCCCCNC(=O)CCCCCNC(=O)[C@H](CCCCN)NC(=O)[C@H](CS)NC(=O)[C@H](CC(C)C)NC(=O)[C@H](Cc1ccccc1)NC(=O)[C@H](CC(N)=O)NC(=O)CNC(=O)[C@H](Cc1ccccc1)NC(=O)[C@H](Cc1ccc(O)cc1)NC(=O)[C@H](Cc1c[nH]c2ccccc12)NC(=O)[C@H](CC(N)=O)NC(=O)[C@H](C)NC(=O)[C@@H](NC(=O)[C@H](C)NC(=O)[C@@H](N)CC(=O)O)C(C)C)C(=O)N[C@@H](CS)C(=O)N[C@@H](CC(=O)O)C(=O)N[C@@H](CCCNC(=N)N)C(=O)N[C@@H](Cc1ccccc1)C(=O)N[C@@H](Cc1ccc(O)cc1)C(=O)N1CCC[C@H]1C(=O)N[C@@H](CC(N)=O)C(=O)N[C@@H](CC(=O)O)C(=O)N[C@@H](CC(C)C)C(=O)N[C@@H](Cc1c[nH]c2ccccc12)C(=O)N[C@H](C(N)=O)C(C)C [msR4M-L1, CXCR4-ECL1[97–110]-6-Ahx-12-Ado-ECL2[182–196]]
effect on CXCL12/CXCR4-elicited signaling [1]: remained unaffected | inhibition of MIF-mediated B-cell chemotaxis ([2]; 16 nM MIF, peptide at 5-fold molar excess (80 nM)): fully blocked | MIF-elicited chemotaxis ([2]; log(msR4M-L1) (M) = -6.495): 1.49 and 1 and 1.46 and 1.55 | MIF-elicited chemotaxis ([2]; log(msR4M-L1) (M) = -6.796): 1.24 and 1.03 and 1.49 and 1.3 | MIF-elicited chemotaxis ([2]; log(msR4M-L1) (M) = -7.097): 1.2 (3×) and 1.12 | MIF-elicited chemotaxis ([2]; log(msR4M-L1) (M) = -7.495): 1.18 and 1.24 and 2 and 1.77 | MIF-elicited chemotaxis ([2]; log(msR4M-L1) (M) = -7.796): 1.67 (2×) and 2.32 and 1.89 | MIF-elicited chemotaxis ([2]; log(msR4M-L1) (M) = -10): 2.52 and 2.18 and 3 and 2.83 | effect on MIF-upregulated pAMPK levels [3]: not attenuated | effect on MIF-induced static monocyte adhesion, TNF-α-prestimulated HAoECs ([4]; 40 pM TNF-α pre-treatment, 320 nM msR4M-L1): abrogated the effect of MIF | effect on MIF-induced static monocyte adhesion, resting HAoECs ([4]; 16 nM MIF, 320 nM msR4M-L1, 16 h): blocked the pro-adhesion effect of MIF | Fig. 5a, MIF-induced monocyte adhesion [4, 10]: 56.3 and 56.9 and 61.4 and 42.3 | effect on MIF-induced monocyte adhesion under flow ([5]; 1.5 dyn/cm^2, 16 nM MIF, 320 nM msR4M-L1): inhibited monocyte adhesion | Fig. 5c, MIF-induced monocyte adhesion [5, 10]: 206 and 207 and 188 and 291 | Fig. 5b, MIF-induced monocyte adhesion ([5]; TNF + MIF + msR4M-L1, individual replicates, n = 3): 105.71 and 99.43 and 83.71 | toxicity or side effects ([6]; 50 µg i.p. for 4.5 weeks): No toxicity or side effects were noted | atherosclerotic lesion size in aortic arch ([6]; Apoe−/− mice, HFD 4.5 weeks, 50 µg (2.5 mg kg^−1) i.p. three times per week, HE, 7 vs 7 mice): significantly decreased | Lesion area (x10to3 µm2) ([6]; Fig. 6g, msR4M-L1-treated animals, per animal, n = 11): 184.774 x10to3 µm2 and 104.198 x10to3 µm2 and 151.257 x10to3 µm2 and 126.04 x10to3 µm2 and 45.213 x10to3 µm2 and 130.67 x10to3 µm2 and 89.727 x10to3 µm2 and 63.265 x10to3 µm2 and 177.705 x10to3 µm2 and 117.601 x10to3 µm2 and 70.989 x10to3 µm2 | number of lesional macrophages, MAC-2 staining ([6]; as E123, 11 vs 12 mice): significantly decreased | atherosclerotic lesion size in aortic root ([6]; as E123, ORO, 12 vs 12 mice): significantly decreased | circulating inflammatory cytokine levels [7]: marked reduction | LDLR cell surface level (Q3), MIF + msR4M-L1 ([8]; 80 nM MIF, 400 nM msR4M-L1, LDL 25 µg/mL, without MIF 15.1%, MIF alone 8.99%, one of two experiments): 12.6% | CXCR4 cell surface level (Q3), MIF + msR4M-L1 ([8]; as E143, without MIF 39%, MIF alone […]): 48.7% | Body weight [9]: 22.3 ± 0.2 g
